Reference: patent publication US9133206B2, “Benzodiazepine and pyridodiazepine derivatives” (AbbVie Inc., priority 2010, dated 2015)

Test system: SK-N-SH human neuroblastoma cells
Experiment: Serum Deprivation/JC-1 Mitochondrial Membrane Potential (MMP) Assay
Assay type: cell-based
Details: Homo sapiens; for EC50 / Emax: SK-N-SH; for EC50: 18 h, serum deprivation ~18 hours, JC-1 ratio normalized to peak value for 10 μM dimebolin, single curve fit to mean data of n=2-3; for Emax: percent maximal intensity in JC-1 ratio normalized to peak value for 10 μM dimebolin, read-out: JC-1 max %; for Emax / activation at 3 µM: serum deprivation; for activation at 3 µM: single dose 3 μM, JC-1 ratio normalized to peak value for 10 μM dimebolin (n=2-4), read-out: JC-1 max % (@ 3 μM)
In short: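 SK-N-SH cells serum-deprived ~18 h with compound, then stained with JC-1 for 40 min at 37 °C; red (560/595 nm) to green (485/535 nm) ratio reports membrane potential. Response normalized to peak from 10 μM dimebolin; EC50 from fit to mean of n=2–3, or single-dose 3 μM; DMSO ≤1%.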

Row | SMILES | EC50 | Emax | activation at 3 µM
1 | O=C(N1CCOCC1)N1Cc2ccccc2N2CCN(S(=O)(=O)c3ccccc3)CC2C1 (centres unmarked) [Example 81, morpholin-4-yl[3-(phenylsulfonyl)-1,2,3,4,4a,5-hexahydropyrazino[1,2-a][1,4]benzodiazepin-6(7H)-yl]methanone] | 9.92 µM | 129% | –
2 | O=C(N1CCOCC1)N1Cc2ccccc2N2CCN(c3ccc(Cl)cc3)CC2C1 (centres unmarked) [Example 82, [3-(4-chlorophenyl)-1,2,3,4,4a,5-hexahydropyrazino[1,2-a][1,4]benzodiazepin-6(7H)-yl](morpholin-4-yl)methanone] | 5.11 µM | 127% | –
3 | CC(=O)N1CCN2c3ccccc3CN(C(=O)N3CCOCC3)CC2C1 (centres unmarked) [Example 83, 1-[6-(morpholin-4-ylcarbonyl)-1,2,4a,5,6,7-hexahydropyrazino[1,2-a][1,4]benzodiazepin-3(4H)-yl]ethanone] | > 31.6 µM | 34% | –
4 | CC(=O)N1CCC(C(=O)N2Cc3ccccc3N3CCN(Cc4ccccc4)CC3C2)CC1 (centres unmarked) [Example 84, 1-{4-[(3-benzyl-1,2,3,4,4a,5-hexahydropyrazino[1,2-a][1,4]benzodiazepin-6(7H)-yl)carbonyl]piperidin-1-yl}ethanone] | – | – | 183%
5 | O=C(c1cn[nH]c1)N1Cc2ccccc2N2CCN(Cc3ccccc3)CC2C1 (centres unmarked) [Example 85, (3-benzyl-1,2,3,4,4a,5-hexahydropyrazino[1,2-a][1,4]benzodiazepin-6(7H)-yl)(1H-pyrazol-4-yl)methanone] | – | – | 80%
6 | O=C(c1ccn[nH]1)N1Cc2ccccc2N2CCN(Cc3ccccc3)CC2C1 (centres unmarked) [Example 86, (3-benzyl-1,2,3,4,4a,5-hexahydropyrazino[1,2-a][1,4]benzodiazepin-6(7H)-yl)(1H-pyrazol-5-yl)methanone] | 3.14 µM | 218% | –
7 | O=C(CN1CCOCC1)N1Cc2ccccc2N2CCN(Cc3ccccc3)CC2C1 (centres unmarked) [Example 87, 1-(3-benzyl-1,2,3,4,4a,5-hexahydropyrazino[1,2-a][1,4]benzodiazepin-6(7H)-yl)-2-(morpholin-4-yl)ethanone] | – | – | 83%
8 | O=C(c1cscn1)N1Cc2ccccc2N2CCN(Cc3ccccc3)CC2C1 (centres unmarked) [Example 88, (3-benzyl-1,2,3,4,4a,5-hexahydropyrazino[1,2-a][1,4]benzodiazepin-6(7H)-yl)(1,3-thiazol-4-yl)methanone] | – | – | 139%
9 | O=C(c1cncs1)N1Cc2ccccc2N2CCN(Cc3ccccc3)CC2C1 (centres unmarked) [Example 89, (3-benzyl-1,2,3,4,4a,5-hexahydropyrazino[1,2-a][1,4]benzodiazepin-6(7H)-yl)(1,3-thiazol-5-yl)methanone] | 1.83 µM | 140% | –
10 | O=C(c1ccno1)N1Cc2ccccc2N2CCN(Cc3ccccc3)CC2C1 (centres unmarked) [Example 90, (3-benzyl-1,2,3,4,4a,5-hexahydropyrazino[1,2-a][1,4]benzodiazepin-6(7H)-yl)(1,2-oxazol-5-yl)methanone] | – | – | 114%
11 | O=C(CCN1CCCC1)N1Cc2ccccc2N2CCN(Cc3ccccc3)CC2C1 (centres unmarked) [Example 91, 1-(3-benzyl-1,2,3,4,4a,5-hexahydropyrazino[1,2-a][1,4]benzodiazepin-6(7H)-yl)-3-(pyrrolidin-1-yl)propan-1-one] | – | – | 78%
12 | O=C(CC1CC1)N1Cc2ccccc2N2CCN(Cc3ccccc3)CC2C1 (centres unmarked) [Example 92, 1-(3-benzyl-1,2,3,4,4a,5-hexahydropyrazino[1,2-a][1,4]benzodiazepin-6(7H)-yl)-2-cyclopropylethanone] | 2.47 µM | 174% | –
13 | O=C(c1ccc[nH]1)N1Cc2ccccc2N2CCN(Cc3ccccc3)CC2C1 (centres unmarked) [Example 93, (3-benzyl-1,2,3,4,4a,5-hexahydropyrazino[1,2-a][1,4]benzodiazepin-6(7H)-yl)(1H-pyrrol-2-yl)methanone] | 1.56 µM | 185% | –
14 | O=C(c1ccoc1)N1Cc2ccccc2N2CCN(Cc3ccccc3)CC2C1 (centres unmarked) [Example 94, (3-benzyl-1,2,3,4,4a,5-hexahydropyrazino[1,2-a][1,4]benzodiazepin-6(7H)-yl)(3-furyl)methanone] | 2.76 µM | 172% | –
15 | Cc1cc(C(=O)N2Cc3ccccc3N3CCN(Cc4ccccc4)CC3C2)c(C)n1C (centres unmarked) [Example 95, (3-benzyl-1,2,3,4,4a,5-hexahydropyrazino[1,2-a][1,4]benzodiazepin-6(7H)-yl)(1,2,5-trimethyl-1H-pyrrol-3-yl)methanone] | 0.282 µM | 189% | –
16 | Cc1cc(C(=O)N2Cc3ccccc3N3CCN(Cc4ccccc4)CC3C2)c(C)[nH]1 (centres unmarked) [Example 96, (3-benzyl-1,2,3,4,4a,5-hexahydropyrazino[1,2-a][1,4]benzodiazepin-6(7H)-yl)(2,5-dimethyl-1H-pyrrol-3-yl)methanone] | 0.856 µM | 180% | –
17 | NC(=O)C1(C(=O)N2Cc3ccccc3N3CCN(Cc4ccccc4)CC3C2)CC1 (centres unmarked) [Example 97, 1-[(3-benzyl-1,2,3,4,4a,5-hexahydropyrazino[1,2-a][1,4]benzodiazepin-6(7H)-yl)carbonyl]cyclopropanecarboxamide] | – | – | 32%

Row | SMILES | EC50 | Emax | activation at 3 µM
18 | O=C(Cc1cccnc1)N1Cc2ccccc2N2CCN(Cc3ccccc3)CC2C1 (centres unmarked) [Example 98, 1-(3-benzyl-1,2,3,4,4a,5-hexahydropyrazino[1,2-a][1,4]benzodiazepin-6(7H)-yl)-2-(pyridin-3-yl)ethanone] | – | – | 107%
19 | O=C(NCC(=O)N1Cc2ccccc2N2CCN(Cc3ccccc3)CC2C1)c1ccco1 (centres unmarked) [Example 99, N-[2-(3-benzyl-1,2,3,4,4a,5-hexahydropyrazino[1,2-a][1,4]benzodiazepin-6(7H)-yl)-2-oxoethyl]-2-furamide] | 3.15 µM | 165% | –
20 | CC(C)C(=O)N1Cc2ccccc2N2CCN(Cc3ccccc3)CC2C1 (centres unmarked) [Example 100, 1-(3-benzyl-1,2,3,4,4a,5-hexahydropyrazino[1,2-a][1,4]benzodiazepin-6(7H)-yl)-2-methylpropan-1-one] | – | – | 118%
21 | Cc1noc(C)c1C(=O)N1Cc2ccccc2N2CCN(Cc3ccccc3)CC2C1 (centres unmarked) [Example 101, (3-benzyl-1,2,3,4,4a,5-hexahydropyrazino[1,2-a][1,4]benzodiazepin-6(7H)-yl)(3,5-dimethyl-1,2-oxazol-4-yl)methanone] | – | – | 149%
22 | Cc1cnc(C(=O)N2Cc3ccccc3N3CCN(Cc4ccccc4)CC3C2)cn1 (centres unmarked) [Example 102, (3-benzyl-1,2,3,4,4a,5-hexahydropyrazino[1,2-a][1,4]benzodiazepin-6(7H)-yl)(5-methylpyrazin-2-yl)methanone] | – | – | 110%
23 | CN1CCN(CC(=O)N2Cc3ccccc3N3CCN(Cc4ccccc4)CC3C2)CC1 (centres unmarked) [Example 103, 1-(3-benzyl-1,2,3,4,4a,5-hexahydropyrazino[1,2-a][1,4]benzodiazepin-6(7H)-yl)-2-(4-methylpiperazin-1-yl)ethanone] | – | – | 42%
24 | O=C(c1ccco1)N1Cc2ccccc2N2CCN(Cc3ccccc3)CC2C1 (centres unmarked) [Example 104, (3-benzyl-1,2,3,4,4a,5-hexahydropyrazino[1,2-a][1,4]benzodiazepin-6(7H)-yl)(2-furyl)methanone] | – | – | 178%
25 | Cn1cccc1C(=O)N1Cc2ccccc2N2CCN(Cc3ccccc3)CC2C1 (centres unmarked) [Example 105, (3-benzyl-1,2,3,4,4a,5-hexahydropyrazino[1,2-a][1,4]benzodiazepin-6(7H)-yl)(1-methyl-1H-pyrrol-2-yl)methanone] | 2.52 µM | 197% | –
26 | CCC(=O)N1Cc2ccccc2N2CCN(Cc3ccccc3)CC2C1 (centres unmarked) [Example 106, 1-(3-benzyl-1,2,3,4,4a,5-hexahydropyrazino[1,2-a][1,4]benzodiazepin-6(7H)-yl)propan-1-one] | – | – | 81%
27 | O=C(c1ccncc1)N1Cc2ccccc2N2CCN(Cc3ccccc3)CC2C1 (centres unmarked) [Example 107, (3-benzyl-1,2,3,4,4a,5-hexahydropyrazino[1,2-a][1,4]benzodiazepin-6(7H)-yl)(pyridin-4-yl)methanone] | 5.66 µM | 192% | –
28 | CCCC(=O)N1Cc2ccccc2N2CCN(Cc3ccccc3)CC2C1 (centres unmarked) [Example 108, 1-(3-benzyl-1,2,3,4,4a,5-hexahydropyrazino[1,2-a][1,4]benzodiazepin-6(7H)-yl)butan-1-one] | 3.12 µM | 162% | –
29 | O=C(C1CCOC1)N1Cc2ccccc2N2CCN(Cc3ccccc3)CC2C1 (centres unmarked) [Example 109, (3-benzyl-1,2,3,4,4a,5-hexahydropyrazino[1,2-a][1,4]benzodiazepin-6(7H)-yl)(tetrahydrofuran-3-yl)methanone] | – | – | 65%
30 | O=C(c1cccnc1)N1Cc2ccccc2N2CCN(Cc3ccccc3)CC2C1 (centres unmarked) [Example 110, (3-benzyl-1,2,3,4,4a,5-hexahydropyrazino[1,2-a][1,4]benzodiazepin-6(7H)-yl)(pyridin-3-yl)methanone] | – | – | 97%
31 | O=C(CCN1CCCCC1)N1Cc2ccccc2N2CCN(Cc3ccccc3)CC2C1 (centres unmarked) [Example 111, 1-(3-benzyl-1,2,3,4,4a,5-hexahydropyrazino[1,2-a][1,4]benzodiazepin-6(7H)-yl)-3-(piperidin-1-yl)propan-1-one] | – | – | 162%
32 | O=C(C1CC1)N1Cc2ccccc2N2CCN(Cc3ccccc3)CC2C1 (centres unmarked) [Example 112, (3-benzyl-1,2,3,4,4a,5-hexahydropyrazino[1,2-a][1,4]benzodiazepin-6(7H)-yl)(cyclopropyl)methanone] | 4.67 µM | 139% | –
33 | CCOCC(=O)N1Cc2ccccc2N2CCN(Cc3ccccc3)CC2C1 (centres unmarked) [Example 113, 1-(3-benzyl-1,2,3,4,4a,5-hexahydropyrazino[1,2-a][1,4]benzodiazepin-6(7H)-yl)-2-ethoxyethanone] | – | – | 51%
34 | CC1(C(=O)N2Cc3ccccc3N3CCN(Cc4ccccc4)CC3C2)CC1 (centres unmarked) [Example 114, (3-benzyl-1,2,3,4,4a,5-hexahydropyrazino[1,2-a][1,4]benzodiazepin-6(7H)-yl)(1-methylcyclopropyl)methanone] | 4.36 µM | 201% | –
